{"source": "patent US10934286B2", "about": "“Heterocyclic sulfones as ROR gamma modulators” (BRISTOL-MYERS SQUIBB COMPANY, priority 2016, dated 2021)", "data": [{"target": "T1, RORγ receptor (Homo sapiens, UniProt P51449)", "T1 construct": "Jurkat pEx/Gal/hRORγ CLBD/HYG pG51uc/blast; expressed in transfected cells", "T1 sequence (P51449 269-508 limits assumed)": "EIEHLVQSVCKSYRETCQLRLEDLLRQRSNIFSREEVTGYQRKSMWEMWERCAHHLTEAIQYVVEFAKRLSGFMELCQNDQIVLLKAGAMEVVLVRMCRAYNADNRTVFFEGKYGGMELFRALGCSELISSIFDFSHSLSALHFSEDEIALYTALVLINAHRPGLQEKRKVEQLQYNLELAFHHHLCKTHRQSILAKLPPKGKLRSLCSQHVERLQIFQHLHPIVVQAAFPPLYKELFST", "assay": "General RORγ Gal4 reporter assay (inverse agonist activity, inhibition of luminescence)", "type": "cell-based", "conditions": "Gal4-luciferase reporter in Jurkat cells stably over-expressing hRORγ LBD; overnight incubation; 40 μM to 0.67 nM", "procedure": "General RORγ Gal4 Reporter Assay Inverse agonist activity of potential ligands to RORγ was measured by inhibition of luminescence in a Gal4-luciferase reporter assay in Jurkat cells.\nThe following day, cells were lysed with 10 μL of Steady-Glo Luciferase Assay System (Promega Cat. No. EZ550), and analyzed immediately. IC50 values were determined.", "units": {"IC50": "nM"}, "values": [{"smiles": "CC(C)(O)CN1C(=O)[C@H](F)C[C@H]1C(=O)N1CCC2(S(=O)(=O)c3cccc(F)c3)c3ccc(C(F)(C(F)(F)F)C(F)(F)F)nc3CCC12", "note": "(stereo partly shown) [Example 48]", "IC50": 26}, {"smiles": "CC(C)(O)CN1C(=O)[C@@H]2C[C@@H]2[C@H]1C(=O)N1CCC2(S(=O)(=O)c3cccc(F)c3)c3ccc(C(F)(C(F)(F)F)C(F)(F)F)nc3CCC12", "note": "(stereo partly shown) [Example 49]", "IC50": 18}, {"smiles": "CC(C)(O)CN1C(=O)[C@H](F)C[C@H]1C(=O)N1CCC2(S(=O)(=O)c3cccc(F)c3)c3cnc(C(F)(C(F)(F)F)C(F)(F)F)cc3CCC12", "note": "(stereo partly shown) [Example 50]", "IC50": 14}, {"smiles": "CC(C)(O)CN1C(=O)[C@@H]2C[C@@H]2[C@H]1C(=O)N1CCC2(S(=O)(=O)c3cccc(F)c3)c3cnc(C(F)(C(F)(F)F)C(F)(F)F)cc3CCC12", "note": "(stereo partly shown) [Example 52]", "IC50": 1810}, {"smiles": "CC(C)(O)CN1C(=O)[C@H](F)C[C@H]1C(=O)N1CCC2(S(=O)(=O)c3ccccc3)c3ccc(C(F)(C(F)(F)F)C(F)(F)F)nc3CCC12", "note": "(stereo partly shown) [Example 53]", "IC50": 18}, {"smiles": "CC(C)(O)CN1C(=O)CCN1C(=O)N1CCC2(S(=O)(=O)c3ccc(F)cc3)c3cnc(C(F)(C(F)(F)F)C(F)(F)F)cc3CCC12", "note": "(stereo not shown) [Example 55]", "IC50": 31}, {"smiles": "CC(C)(O)CN1C(=O)CCN1C(=O)N1CCC2(S(=O)(=O)c3cccc(F)c3)c3ccc(C(F)(C(F)(F)F)C(F)(F)F)nc3CCC12", "note": "(stereo not shown) [Example 56]", "IC50": 28}, {"smiles": "CC(C)(O)CN1C(=O)CCN1C(=O)N1CCC2(S(=O)(=O)c3cccc(F)c3)c3cnc(C(F)(C(F)(F)F)C(F)(F)F)cc3CCC12", "note": "(stereo not shown) [Example 57]", "IC50": 21}, {"smiles": "CC(C)(O)CN1C(=O)CCN1C(=O)N1CCC2(S(=O)(=O)c3ccccc3)c3ccc(C(F)(C(F)(F)F)C(F)(F)F)nc3CCC12", "note": "(stereo not shown) [Example 58]", "IC50": 12}, {"smiles": "[2H]C([2H])([2H])N1C(=O)[C@H](F)C[C@H]1C(=O)N1CCC2(S(=O)(=O)c3cccc(F)c3)c3ccc(C(F)(C(F)(F)F)C(F)(F)F)nc3CCC12", "note": "(stereo partly shown) [Example 63]", "IC50": 13}, {"smiles": "[2H]C([2H])([2H])N1C(=O)[C@H](F)C[C@H]1C(=O)N1CCC2(S(=O)(=O)c3ccc(F)cc3)c3ccc(C(F)(C(F)(F)F)C(F)(F)F)nc3CCC12", "note": "(stereo partly shown) [Example 64]", "IC50": 24}, {"smiles": "[2H]C([2H])([2H])N1C(=O)[C@H](F)C[C@H]1C(=O)N1CCC2(S(=O)(=O)c3cccc(F)c3)c3cnc(C(F)(C(F)(F)F)C(F)(F)F)cc3CCC12", "note": "(stereo partly shown) [Example 65]", "IC50": 91}, {"smiles": "[2H]C([2H])([2H])N1C(=O)[C@H](F)C[C@H]1C(=O)N1CCC2(S(=O)(=O)c3ccccc3)c3ccc(C(F)(C(F)(F)F)C(F)(F)F)nc3CCC12", "note": "(stereo partly shown) [Example 66]", "IC50": 31}]}]}
